According to ChEMBL document CHEMBL3351309, “DNA binders in clinical trials and chemotherapy” (2014):

Test system: U2OS
Test: Growth inhibition of human U2OS cells after 3 days in presence of werner syndrome helicase inhibitor NSC 19630
Type: functional

Cc1oc2nc1-c1nc(co1)-c1nc(co1)-c1nc(co1)-c1nc(co1)-c1nc(co1)C1=NC(CS1)c1nc-2c(C)o1 (stereo unspecified) [TELOMESTATIN]
growth inhibition (GI): 70%
